Data on 36 compounds can be found in ChEMBL document CHEMBL4007403, “Identification of Triazolothiadiazoles as Potent Inhibitors of the dCTP Pyrophosphatase 1” (J Med Chem, 2017).

Converted amounts (≈) assume the structure as drawn. Bounds are passed on as bounds.

Data set [1] has as its target T1, dCTP pyrophosphatase 1 (Homo sapiens) (UniProt Q9H773).
T1 sequence (whole entry): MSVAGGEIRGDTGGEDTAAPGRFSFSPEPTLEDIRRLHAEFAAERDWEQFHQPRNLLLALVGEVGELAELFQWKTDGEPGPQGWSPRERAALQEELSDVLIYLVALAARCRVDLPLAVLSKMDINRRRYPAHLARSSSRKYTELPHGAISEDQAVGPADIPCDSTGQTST
Description: Binding affinity to recombinant human N-terminal His-tagged dCTPase 1 expressed in Escherichia coli BL21(DE3)pLysS assessed as change in melting temperature at 33 uM by Sypro Orange dye based DSF assay

A short description of data set [2]: Half life in human liver microsomes up to 100 uM preincubated for 10 mins followed by NADPH addition by UPLC-MS analysis. Format: ADME, microsome.
A short description of data set [3]: Stability of the compound in biochemical assay buffer under basic mobile phase conditions by HPLC-MS analysis. The format is physicochemical.
A short description of data set [4]: Intracellular bioavailability in human HL60 cells assessed as ratio of fraction unbound in cells to intracellular drug accumulation at 0.5 uM after 45 mins by LC-MS/MS analysis. The format is ADME. Particulars: hl-60, 0.75 h.
In data set [5] the target is T2, dCTP pyrophosphatase 1 (Homo sapiens, UniProt Q9H773).
T2 sequence (Q9H773 whole entry): T1 sequence (whole entry)
Kind of data set: Inhibition of recombinant human N-terminal His-tagged dCTPase 1 expressed in Escherichia coli BL21(DE3)pLysS using dCTP as substrate after 1 hr by malachite green reagent based assay.

Data set [6] is described as follows: Half life in mouse liver microsomes up to 100 uM preincubated for 10 mins followed by NADPH addition by UPLC-MS analysis. Format: ADME, microsome.
Data set [7] in a line: Stability of the compound in biochemical assay buffer under mildly acidic mobile phase conditions by HPLC-MS analysis. Format: physicochemical.
The nature of data set [8]: Stability of the compound in DMSO measured after several months by HPLC-MS analysis. Format: physicochemical.
The nature of data set [9]: Hepatic extraction ratio in mouse liver microsomes up to 100 uM preincubated for 10 mins followed by NADPH addition by UPLC-MS analysis. Format: ADME, microsome. The following applies: read-out: ERH.
The nature of data set [10]: Hepatic extraction ratio in human liver microsomes up to 100 uM preincubated for 10 mins followed by NADPH addition by UPLC-MS analysis. Format: ADME, microsome. Particulars: read-out: ERH.
Data set [11] can be described thus: Kinetic solubility of the compound. Particulars: read-out: Kinetic_solubility. Format: physicochemical.

For the compound `Cc1cc(-c2nn3c(-c4cccs4)nnc3s2)n[nH]1`, in data set [1], the ΔTm amounted to 0.9 °C. Further, the half-life was 14 min in [2] and 2 min in [6]. In addition, the Stability result in data set [3], in [7] and in data set [8] was “Stable” each time. Also, the Ratio in data set [4] came to 0.78. The IC50 in [5] is > 10000 nM. The figures for the hepatic extraction ratio in data set [9] and in data set [10] were 0.97 and 0.79, respectively. The solubility kinetic in data set [11] came out at 58 µM (≈ 16.7 µg/mL).

Regarding `CCc1noc(C)c1-c1nn2c(-c3cccs3)nnc2s1`, the Stability entry in data set [3], in data set [7] and in [8] was “Stable” throughout. In data set [5], the IC50 came to 346 nM.

For `CCCCc1nnc2sc(-c3cccc(OC)c3)nn12`, the Stability result in data set [3], in [7] and in data set [8] was “Stable” throughout. The concentration for half-maximal inhibition (IC50) in data set [5] was determined as 2060 nM.

For `c1ccc(-c2nn3c(-c4ccco4)nnc3s2)cc1`, the Stability entry in data set [3], in data set [7] and in data set [8] was “Stable” in each case. The IC50 in data set [5] came to 592 nM.

In the case of `c1ccc(-c2nnc3sc(-c4cc5ccccc5o4)nn23)nc1`, the Stability entry in data set [3], in data set [7] and in data set [8] was “Stable” in each case. The IC50 in data set [5] came out at 401 nM.

As to `Brc1ccccc1-c1nn2c(-c3ccccn3)nnc2s1`, the Stability result in [3], in [7] and in [8] was “Stable” each time. The IC50 in data set [5] worked out at 328 nM.

`Clc1ccccc1-c1nn2c(-c3ccccn3)nnc2s1`: the Stability result in [3], in data set [7] and in [8] was “Stable” in each case. Besides, the IC50 in data set [5] is 440 nM.

For the compound `COc1cccc(-c2nnc3sc(-c4ccncc4)nn23)c1`, the Stability result in [3], in data set [7] and in data set [8] was “Stable” in each case. Further, the concentration for half-maximal inhibition (IC50) in data set [5] stood at 1020 nM.

For the compound `COc1ccc(-c2nn3c(-c4cccnc4)nnc3s2)cc1`, the Stability result in [3], in [7] and in [8] was “Stable” throughout. Also, the concentration for half-maximal inhibition (IC50) in data set [5] turned out to be 2610 nM.

Turning to `Cc1onc(-c2cccs2)c1-c1nn2c(-c3ccco3)nnc2s1`, the Stability result in data set [3], in data set [7] and in data set [8] was “Stable” throughout. Further, in data set [5], the IC50 was determined as 1030 nM.

For the compound `Fc1cccc(-c2nn3c(-c4ccccn4)nnc3s2)c1`, the Stability result in [3], in [7] and in data set [8] was “Stable” in each case. Also, the IC50 in data set [5] was 357 nM.

With `Brc1cccc(-c2nn3c(-c4ccccn4)nnc3s2)c1`, the Stability result in [3], in [7] and in data set [8] was “Stable” each time. Moreover, the IC50 in data set [5] was 602 nM.

Regarding `Fc1ccccc1-c1nn2c(-c3ccccn3)nnc2s1`, the Stability entry in [3], in [7] and in data set [8] was “Stable” throughout. Besides, the concentration for half-maximal inhibition (IC50) in data set [5] worked out at 670 nM.

For the compound `CCCc1nnc2sc(-c3ccc(OC)cc3)nn12`, the Stability entry in [3], in data set [7] and in data set [8] was “Stable” throughout. The 50% inhibitory concentration (IC50) in [5] amounted to 6970 nM.

As to `c1csc(-c2nnc3sc(-c4cnccn4)nn23)c1`, the values for the half-life in data set [2] and in data set [6] were 6 min and 1 min, respectively. Further, the Stability entry in data set [3], in [7] and in data set [8] was “Stable” each time. For the same compound, in data set [5], the IC50 was 170 nM. For the same compound, the hepatic extraction ratio turned out to be 0.99 in [9] and 0.89 in data set [10]. The solubility kinetic in data set [11] was 30 µM (≈ 8.59 µg/mL).

With `C(=C\c1cccnc1)/Cc1nn2c(-c3ccco3)nnc2s1`, the Stability entry in data set [3], in [7] and in data set [8] was “Stable” each time. For the same compound, the IC50 in [5] amounted to 453 nM.

As to `c1ccc(-c2nn3c(-c4ccccn4)nnc3s2)cc1`, the Stability entry in data set [3], in [7] and in data set [8] was “Stable” each time. For the same compound, in data set [5], the IC50 amounted to 619 nM.

Consider `COc1ccc(-c2nn3c(-c4ccccc4F)nnc3s2)cc1`, for which the Stability entry in [3], in data set [7] and in data set [8] was “Stable” in each case. Besides, the IC50 in data set [5] worked out at 208 nM.

As for `CCCCc1nnc2sc(-c3cc(C)nc4ccccc34)nn12`, the Stability result in [3], in data set [7] and in data set [8] was “Stable” each time. Besides, the IC50 in data set [5] came to 5610 nM.

As for `CCOc1ccc(-c2nn3c(-c4ccccn4)nnc3s2)cc1OCC`, the Stability entry in [3], in data set [7] and in data set [8] was “Stable” in each case. The IC50 in [5] turned out to be 1170 nM.

For `Clc1cccc(-c2nn3c(-c4ccccn4)nnc3s2)c1`, the Stability result in [3], in [7] and in data set [8] was “Stable” in each case. Also, the IC50 in [5] is 271 nM.

On to `Clc1ccc(-c2nn3c(-c4ccccn4)nnc3s2)c(Cl)c1`, for which the Stability entry in [3], in data set [7] and in [8] was “Stable” each time. For the same compound, in [5], the IC50 was 419 nM.

On to `Ic1ccccc1-c1nn2c(-c3ccccn3)nnc2s1`, for which the Stability entry in data set [3], in data set [7] and in data set [8] was “Stable” each time. Moreover, in data set [5], the IC50 was 505 nM.

In the case of `COc1cc(OC)cc(-c2nn3c(-c4ccccn4)nnc3s2)c1`, the Stability result in data set [3], in [7] and in data set [8] was “Stable” throughout. Also, the half-maximal inhibitory concentration (IC50) in data set [5] is 276 nM.

Consider `C=CCOc1ccc(-c2nn3c(-c4ccccn4)nnc3s2)cc1`, for which the Stability entry in data set [3], in data set [7] and in [8] was “Stable” in each case. For the same compound, the IC50 in data set [5] is 1210 nM.

For `COc1ccccc1-c1nn2c(-c3ccccn3)nnc2s1`, the Stability entry in [3], in [7] and in [8] was “Stable” each time. For the same compound, in [5], the IC50 is 1030 nM.

Regarding `Clc1ccc(-c2nn3c(-c4ccccn4)nnc3s2)cc1`, the Stability entry in data set [3], in [7] and in data set [8] was “Stable” each time. In [5], the IC50 was 204 nM.

Turning to `c1ccc(-c2nnc3sc(-c4cccnc4)nn23)nc1`, the Stability entry in data set [3], in [7] and in [8] was “Stable” in each case. The IC50 in data set [5] came to 233 nM.

`c1ccc(-c2nnc3sc(-c4ccc5c(c4)OCO5)nn23)nc1`: the ΔTm in [1] was determined as 3.1 °C. The half-life is 3 min in [2] and 1 min in data set [6]. Besides, the Stability entry in data set [3], in data set [7] and in [8] was “Stable” each time. Moreover, in data set [4], the Ratio is recorded as 3.5. The IC50 in data set [5] came out at 190 nM. Also, the hepatic extraction ratio was determined as 0.99 in data set [9] and 0.96 in [10]. For the same compound, the solubility kinetic in data set [11] was found to be 25 µM (≈ 8.08 µg/mL).

In the case of `Cc1cccc(-c2nn3c(-c4ccccn4)nnc3s2)c1`, the Stability entry in [3], in data set [7] and in data set [8] was “Stable” each time. Further, in [5], the IC50 worked out at 449 nM.

For `C(=C\c1cccnc1)/Cc1nn2c(-c3ccccc3)nnc2s1`, the Stability entry in data set [3], in data set [7] and in [8] was “Stable” each time. Besides, the IC50 in data set [5] is 558 nM.

Take `c1coc(-c2nnc3sc(-c4csc5c4CCCC5)nn23)c1`: the Stability entry in [3], in [7] and in data set [8] was “Stable” throughout. The IC50 in data set [5] is 144 nM.

For the compound `Cc1ccc(-c2nn3c(-c4ccccn4)nnc3s2)cc1C`, the Stability entry in data set [3], in data set [7] and in data set [8] was “Stable” in each case. Also, in data set [5], the IC50 was found to be 227 nM.

For `CCc1cc(-c2nnc3sc(-c4ccccc4)nn23)n(C)n1`, the Stability entry in data set [3], in data set [7] and in [8] was “Stable” each time. In addition, the IC50 in [5] was > 10000 nM.

As for `c1coc(-c2nnc3sc(-c4ccc5ccccc5n4)nn23)c1`, the Stability entry in [3], in data set [7] and in [8] was “Stable” throughout. In addition, the IC50 in [5] is 177 nM.

As for `CN(C)c1ccc(-c2nn3c(-c4ccccn4)nnc3s2)cc1`, the Stability result in data set [3], in data set [7] and in data set [8] was “Stable” throughout. Also, the half-inhibitory concentration (IC50) in data set [5] is 291 nM.
